Assay results as given in EP0667868B1, “CEPHEM COMPOUNDS” (FUJISAWA PHARMACEUTICAL CO., LTD., priority 1993, dated 1995).
≈ marks a conversion by molar mass, not a printed value.

How the values were obtained:
E. coli = assay: Minimal inhibitory concentration, two-fold agar-plate dilution method; format: cell-based; settings: Escherichia coli, HI-agar, 37°C for 20 hours
Protocol: (§1) In vitro antibacterial activity was determined by the two-fold agar-plate dilution method as described below.
(§2) One loopful of an overnight culture of each test strain in Trypticase-soy broth (10^8 viable cells per ml) was streaked on heart infusion agar (HI-agar)containing graded concentrations of representative test compound, and the minimal inhibitory concentration (MIC) was expressed in terms of µg/ml after incubation at 37°C for 20 hours.

H. influenzae = assay: as above; format: cell-based; settings: Haemophilus influenzae, HI-agar, 37°C for 20 hours
Protocol: as §1, §2

S. aureus = assay: as above; format: cell-based; settings: Staphylococcus aureus, HI-agar, 37°C for 20 hours
Protocol: as §1, §2

[1] = Urinary excretion after oral administration (disc-plate diffusion bioassay); format: in vivo, Male JCL SD strain rats; settings: rat; rats, 20 mg /kg oral, suspended in 0.5% methyl cellulose; urine 0 to 6 and 6 to 24 hours; Bacillus subtilis ATCC 6633 as test organism; read-out: Urinary recovery in 24 hours
Protocol: Male JCL SD strain rats (age, 6-7 weeks) were used. Test compound was suspended in 0.5% methyl cellulose solution. The rats were starved overnight before dosing with 20 mg /kg. Urine samples were collected at 0 to 6 and 6 to 24 hours after oral administration were measured by the disc-plate diffusion method using Bacillus subtilis ATCC 6633 as test organism and sodium citrate agar (0.8% sodium citrate, 0.5% polypeptone, 0.3% beef extract and 1.0% agar) as the test medium. The plate were incubated at 37°C for 18 hours and the zone of inhibition were measured.

| Structure (SMILES) | MIC (E. coli) [µg/mL] | MIC (H. influenzae) [µg/mL] | MIC (S. aureus) [µg/mL] | dose excreted at 24 h [1] [%] |
| --- | --- | --- | --- | --- |
| Nc1nc(/C(=N/O)C(=O)N[C@@H]2C(=O)N3C(C(=O)O)=C(SCc4cn[nH]c4)CS[C@H]23)cs1 [(3), 7β-[2-(2-Aminothiazol-4-yl)-2-(Z)-(hydroxyimino)-acetamido]-3-[(pyrazol-4-yl)methylthio]-3-cephem-4-carboxylic acid] | 0.033 (≈ 0.0685 µM) | 0.129 (≈ 0.268 µM) | 0.23 (≈ 0.478 µM) | 50 |
| Nc1nc(/C(=N/O)C(=O)N[C@@H]2C(=O)N3C(C(=O)O)=C(SCc4ccncc4)CS[C@H]23)cs1 [Comparative (1), 7β-[2-(2-Aminothiazol-4-yl)-2-(Z)-(hydroxyimino)-acetamido]-3-[(4-pyridyl)methylthio]-3-cephem-4-carboxylic acid] | 0.061 (≈ 0.124 µM) | 0.067 (≈ 0.136 µM) | 0.143 (≈ 0.29 µM) |  |
| Cc1nnsc1CSC1=C(C(=O)O)N2C(=O)[C@@H](NC(=O)/C(=N\O)c3csc(N)n3)[C@H]2SC1 [Comparative (2), 7β-[2-(2-Aminothiazol-4-yl)-2-(Z)-(hydroxyimino)-acetamido]-3-[(4-methyl-1,2,3-thiadiazol-5-yl)methylthio]-3-cephem-4-carboxylic acid] | 0.072 (≈ 0.14 µM) | 0.118 (≈ 0.23 µM) | 0.167 (≈ 0.325 µM) |  |
